In one assay the target is Acetylcholinesterase (Homo sapiens, UniProt P22303). Briefly: Inhibition of human erythrocyte acetylcholinesterase using acetylthiocholine as substrate by Ellman's method.
For assay [1], the target named is Amyloid-beta precursor protein (Homo sapiens) (UniProt P05067). As to the kind of experiment: Inhibition of self-mediated Amyloid beta (1 to 42) (unknown origin) aggregation at 20 uM measured every 5 mins by ThT fluorescence based assay relative to control.

This note sets out measurements from ChEMBL document CHEMBL6096730, “Unlocking the Therapeutic Potential of Natural Products for Alzheimer's Disease” (J Med Chem, 2025).

Sequence of Acetylcholinesterase (P22303 whole entry): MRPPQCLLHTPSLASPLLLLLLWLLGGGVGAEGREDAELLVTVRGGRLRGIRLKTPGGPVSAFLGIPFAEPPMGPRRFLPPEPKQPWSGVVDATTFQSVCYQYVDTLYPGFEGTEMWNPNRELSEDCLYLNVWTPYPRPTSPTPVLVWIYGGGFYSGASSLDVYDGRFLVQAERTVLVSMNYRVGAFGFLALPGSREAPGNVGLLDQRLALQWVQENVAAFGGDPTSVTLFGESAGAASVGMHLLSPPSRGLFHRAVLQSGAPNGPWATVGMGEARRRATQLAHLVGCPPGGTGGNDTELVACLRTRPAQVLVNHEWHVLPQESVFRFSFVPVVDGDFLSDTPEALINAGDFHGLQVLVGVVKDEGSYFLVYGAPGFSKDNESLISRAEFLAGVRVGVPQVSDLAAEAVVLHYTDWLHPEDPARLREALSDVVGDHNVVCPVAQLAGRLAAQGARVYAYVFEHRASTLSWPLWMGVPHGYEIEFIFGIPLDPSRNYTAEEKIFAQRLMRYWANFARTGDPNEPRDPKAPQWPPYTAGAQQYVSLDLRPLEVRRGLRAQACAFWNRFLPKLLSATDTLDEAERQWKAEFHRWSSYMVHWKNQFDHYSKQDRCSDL
Sequence of Amyloid-beta precursor protein (Homo sapiens) (P05067 whole entry): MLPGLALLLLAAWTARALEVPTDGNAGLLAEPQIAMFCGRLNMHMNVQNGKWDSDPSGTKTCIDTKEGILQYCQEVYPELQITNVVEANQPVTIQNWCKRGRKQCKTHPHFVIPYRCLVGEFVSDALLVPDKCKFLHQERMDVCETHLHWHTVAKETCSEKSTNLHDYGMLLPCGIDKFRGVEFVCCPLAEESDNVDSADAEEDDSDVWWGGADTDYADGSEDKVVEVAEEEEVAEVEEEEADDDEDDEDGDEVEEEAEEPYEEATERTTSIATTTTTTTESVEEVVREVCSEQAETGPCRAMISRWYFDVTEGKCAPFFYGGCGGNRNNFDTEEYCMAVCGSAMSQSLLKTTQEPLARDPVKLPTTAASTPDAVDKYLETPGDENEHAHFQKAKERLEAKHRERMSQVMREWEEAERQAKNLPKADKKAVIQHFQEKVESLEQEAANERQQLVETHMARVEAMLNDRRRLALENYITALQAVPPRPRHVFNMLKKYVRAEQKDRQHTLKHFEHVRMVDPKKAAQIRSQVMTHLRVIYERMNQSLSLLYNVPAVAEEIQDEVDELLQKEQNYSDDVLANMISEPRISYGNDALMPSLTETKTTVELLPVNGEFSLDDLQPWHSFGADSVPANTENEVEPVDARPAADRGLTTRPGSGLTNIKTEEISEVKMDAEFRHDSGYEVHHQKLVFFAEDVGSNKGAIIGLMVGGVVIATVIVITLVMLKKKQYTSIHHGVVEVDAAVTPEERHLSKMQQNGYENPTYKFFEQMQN

The compound `COc1ccc([C@H]2O[C@@H](O)[C@H]3[C@@H]2C(=O)O[C@@H]3c2cc(OC)c3c(c2)OCO3)cc1OC` gave an IC50 at Acetylcholinesterase of 300 nM.
As for `COc1cc([C@H](O)[C@H](C)Oc2ccc(CCCO)cc2O)ccc1O`, in assay [1], the inhibition was found to be 81%.
